Broadly, the IC50 is the concentration needed to halve the response being measured.

IC50 data for 16 compounds are collected here from patent publication US7601713B2, “Kinase inhibitors and their uses” (Rigel Pharmaceuticals, Inc., priority 2005, dated 2009).

This test concerns the target T1, Axl kinase (Homo sapiens, UniProt P30530).
T1 construct: endogenous in cells; host or cells: HeLa cells
T1 sequence (P30530 26-894): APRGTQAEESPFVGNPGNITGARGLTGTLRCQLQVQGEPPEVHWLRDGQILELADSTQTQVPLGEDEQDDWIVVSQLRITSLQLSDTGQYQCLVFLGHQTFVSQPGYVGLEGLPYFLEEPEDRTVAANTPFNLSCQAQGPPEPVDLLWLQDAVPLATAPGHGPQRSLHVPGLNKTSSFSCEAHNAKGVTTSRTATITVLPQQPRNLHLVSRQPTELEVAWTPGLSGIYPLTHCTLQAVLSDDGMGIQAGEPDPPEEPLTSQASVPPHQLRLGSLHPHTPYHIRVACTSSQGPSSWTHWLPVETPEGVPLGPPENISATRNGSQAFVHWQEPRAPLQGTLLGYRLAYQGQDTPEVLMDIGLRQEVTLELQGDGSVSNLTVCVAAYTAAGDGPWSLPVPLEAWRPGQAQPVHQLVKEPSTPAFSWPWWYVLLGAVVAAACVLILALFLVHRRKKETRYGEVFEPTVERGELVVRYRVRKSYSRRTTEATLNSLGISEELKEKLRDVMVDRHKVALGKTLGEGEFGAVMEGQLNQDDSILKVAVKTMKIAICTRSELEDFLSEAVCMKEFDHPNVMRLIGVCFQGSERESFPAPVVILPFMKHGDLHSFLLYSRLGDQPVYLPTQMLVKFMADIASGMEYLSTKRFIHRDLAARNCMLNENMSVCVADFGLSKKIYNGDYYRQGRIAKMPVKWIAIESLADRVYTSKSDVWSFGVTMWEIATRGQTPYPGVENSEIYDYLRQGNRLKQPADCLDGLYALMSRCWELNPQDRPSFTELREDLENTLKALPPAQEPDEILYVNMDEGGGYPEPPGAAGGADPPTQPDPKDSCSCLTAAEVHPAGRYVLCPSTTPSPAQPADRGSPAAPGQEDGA
As to the kind of experiment: Phospho-Akt in-cell Western assay (Axl antibody cross-linking, Hela cells). Conditions: phospho-Akt readout, read-out: IC50, inhibition of Axl kinase. Format: cell-based. How it is done:
The compounds of the invention were tested in the following assay for their ability to inhibit Axl activity.
Phospho-Akt in-Cell Western Assay
Starvation medium: For Axl stimulation: 0.5% FCS (fetal calf serum) in DMEM, plus Axl/Fc (extracellular domain of AXL fused to immunoglobulin Fc region) (R&D, 154-AL) 500 ng/mL.
Axl antibody cross-linking: • 1st: Mouse anti-Axl (R&D, MAB 154). • 2nd: Biotin-SP-conjugated AffiniPure goat anti-mouse IgG (H+L) (Jackson ImmunoResearch #115-065-003).
Primary antibody: Rabbit anti-human Phospho-Akt antibody (Cell Signaling 9271): 1×250 diluted in blocking buffer.
Secondary antibody: HRP (horse radish peroxidase)-conjugated Goat anti-Rabbit secondary, stock solution: Jackson lmmunoResearch (Goat anti-Rabbit HRP, #111-035-144) 1:1 diluted in glycerol, store at −20° C. The working solution: 1×2000 dilution of stock in blocking buffer.
A 96 well TC (tissue culture treated) plate was coated with 10 μg/mL poly-L-Lysine at 37° C. for 30 min, washed twice with PBS, and air-dried for 5 minutes before cells were added. Hela cells were seeded at 10,000 cells/well and the cells were starved in 100 μL starvation medium containing Axl/Fc for 24 hrs.
The cells were pre-treated with test compounds by adding 100 μL of 2× test compound to the starvation medium on the cells. The cells were incubated at 37° C. for 1 hr before stimulation.
The cells were stimulated by Axl-antibody cross-linking as follows: A 5× 1st/2nd Axl antibody mixture was made (37.5 μg/mL 1st/100 μg/mL 2nd) in starvation medium and nutated at 4° C. with thorough mixing for 1-2 hours for clustering. The resulting mix was warmed to 37° C. 50 μL of 5× Axl 1st/2nd of antibody cluster was added to the cells and the cells were incubated at 37° C. for 5 min.
After 5 minutes stimulation, the plate was flicked to remove medium and the plate was tapped onto paper towels. Formaldehyde (4.0% in PBS, 100 μL) was added to fix the cells and the cells were incubated at ambient temperature for 20 min without shaking.
The cells were washed with a plate washer buffer to remove the formaldehyde solution. The plate was flicked to remove excess wash buffer and tapped onto paper towels. Quenching buffer (100 μL) was added to each well and the cells were incubated at ambient temperature for 20 minutes without shaking.
The cells were washed with a plate washer buffer to remove the quenching buffer. Blocking buffer (100 μL) was added and the cells were incubated at ambient temperature for at least an hour with gentle shaking.
The cells were washed with a plate washer buffer and diluted primary antibody (50 μL) was added to each well (blocking buffer was added to the negative control wells instead). The plates were incubated overnight at 4° C. with gentle shaking.
The wash buffer was removed, diluted secondary antibody (100 μL) was added, and the cells were incubated at ambient temperature for 1 hour with gentle shaking. During the incubation, the chemiluminescent reagent was brought to ambient temperature.
The secondary antibody was removed by washing the cells 1× with wash buffer, 1× with PBS by plate washer. The PBS was removed from the plate and the chemiluminescent reagent (80 μL: 40 μL A and 40 μL B) was added to each well at ambient temperature.
The resulting chemiluminescence was read with a Luminomitor within 10 minutes to minimize changes in signal intensity. After reading the chemiluminescence, the cells were washed 1× with wash buffer and 1× with PBS by plate washer. The plate was tapped onto paper towels to remove excess liquid from wells and air-dried at ambient temperature for 5 minutes.
Crystal Violet working solution (60 μL) was added to each well and the cells were incubated at ambient temperature for 30 min. The crystal violet solution was removed, and the wells were rinsed with PBS, then washed 3× with PBS (200 μL) for 5 minutes each.
5% SDS solution (70 μL) was added to each well and the cells were incubated on a shaker for 30 min at ambient temperature. […]
With `Cc1cc(Nc2nc(NC3C4C=CC(C4)C3C(N)=O)c3ccccc3n2)ccc1OCCN1CCCC1` (racemic) [Compound 215, Racemic-(2-exo,3-exo)-N4-(3-aminocarbonylbicyclo [2.2.1]hept-5-en-2-yl)-N2-(3-methyl-4-(2-(1-pyrrolidinyl)ethoxy)phenyl)-2,4-quinazoline-diamine], the 50% inhibitory concentration (IC50) was less than 5 µM.
Consider `NC(=O)C1C2C=CC(C2)C1Nc1nc(Nc2ccc(OCCN3CCCC3)c(Cl)c2)nc2ccccc12` (racemic) [Compound 216, Racemic-(2-exo,3-exo)-N4-(3-aminocarbonylbicyclo [2.2.1]hept-5-en-2-yl)-N2-(3-Chloro-4-(2-(1-pyrrolidinyl)ethoxy)phenyl)-2,4-quinazoline-diamine], for which the half-maximal inhibitory concentration (IC50) was less than 5 µM.
The result for `CCN(CC)C(=O)c1cccc(Nc2nc(NC3C4C=CC(C4)C3C(N)=O)c3cc[nH]c3n2)c1` (racemic) [Compound 222, Racemic-(2-exo,3-exo)-N4-(3-aminocarbonylbicyclo [2.2.1]hept-5-en-2-yl)-N2-(3-N,N-diethyl-aminocarbonyl-phenyl)-1H-pyrrolo[2,3-d]pyrimidine-2,4-diamine] reads less than 5 µM; that for `CONC(=O)Cc1cccc(Nc2nc(NC3C4C=CC(C4)C3C(N)=O)c3cc[nH]c3n2)c1` (racemic) [Compound 229, Racemic-(2-exo,3-exo)-N4-(3-aminocarbonylbicyclo [2.2.1]hept-5-en-2-yl)-N2-[3-(N-methoxy)-aminocarbonyl-methylphenyl]-1H-pyrrolo[2,3-d]pyrimidine-2,4-diamine], less than 10 µM; that for `CCOC(=O)C1C2C=CC(C2)C1Nc1nc(Nc2cccc(OC)c2)nc2[nH]ccc12` (racemic) [Compound 232, Racemic-(2-exo,3-exo)-N4-(3-ethoxycarbonylbicyclo [2.2.1]hept-5-en-2-yl)-N2-(3-methoxyphenyl)-1H-pyrrolo[2,3-d]pyrimidine-2,4-diamine], less than 10 µM.
Take `NC(=O)C1C2C=CC(C2)C1Nc1nc(Nc2ccc(OCCN3CCCC3)cc2)nc2[nH]cnc12` (racemic) [Compound 234]: the IC50 was less than 5 µM.
In the case of `CNC(=O)[C@H]1C[C@H]2CC(C2(C)C)[C@@]1(C)Nc1nc(Nc2ccc(OCCN3CCCC3)cc2)nc2ccsc12` (stereo in doubt) [Compound 197, (1S,2R,3S,5R)-N,2,6,6-tetramethyl-2-(2-(4-(2-(pyrrolidin-1-yl)ethoxy)phenylamino)thieno[3,2-d]pyrimidin-4-ylamino)bicyclo[3.1.1] heptane-3-carboxamide], the half-maximal inhibitory concentration (IC50) is less than 5 µM.
The result for `CNC(=O)[C@H]1CC2CC(C2(C)C)[C@@]1(C)Nc1nc(Nc2ccc(N3CCN(C4CCCCC4)CC3)cc2)nc2ccsc12` (stereo in doubt) [Compound 198, (1S,2R,3S,SR)-2-(2-(4-(4-cyclohexylpiperazin-1-yl)phenylamino)thieno [3,2-d]pyrimidin-4-ylamino)-N,2,6,6-tetramethylbicyclo[3.1.1] heptane-3-carboxamide] reads less than 5 µM.
On to `NC(=O)C1C2C=CC(C2)C1Nc1nc(Nc2ccc3c(c2)OCCCO3)nc2ccsc12` (stereo not shown) [Compound 182, 3-(2-(3,4-dihydro-2H-benzo[b][1,4]dioxepin-7-ylamino)thieno[3,2-d]pyrimidin-4-ylamino)bicyclo[2.2.1] hept-5-ene-2-carboxamide], for which the IC50 is less than 5 µM.
For `NC(=O)C1C2C=CC(C2)C1Nc1nc(Nc2ccc(OCCN3CCCC3)cc2)nc2c1CCC2` (stereo not shown) [Compound 185, 3-(2-(4-(2-(pyrrolidin-1-yl)ethoxy)phenylamino)-6,7-dihydro-5H-cyclopenta[d]pyrimidin-4-ylamino)bicyclo[2.2.1] hept-5-ene-2-carboxamide] the value was less than 5 µM; for `NC(=O)C1C2C=CC(C2)C1Nc1nc2c(c(Nc3ccc(OCCN4CCCC4)cc3)n1)CN(Cc1ccccc1)CC2` (stereo not shown) [Compound 186, 3-(6-benzyl-4-(4-(2-(pyrrolidin-1-yl)ethoxy)phenylamino)-5,6,7,8-tetrahydropyrido[4,3-d]pyrimidin-2-ylamino)bicyclo[2.2.1] hept-5-ene-2-carboxamide], less than 5 µM; for `NC(=O)[C@H]1C2C=CC(C2)[C@H]1Nc1nc(Nc2ccc(OCCN3CCCC3)cc2)nc2c1cnn2Cc1ccccc1` (stereo partly drawn) [Compound 189, (2S,3R)-3-(1-benzyl-6-(4-(2-(pyrrolidin-1-yl)ethoxy)phenylamino)-1H-pyrazolo[3,4-d]pyrimidin-4-ylamino)bicyclo[2.2.1] hept-5-ene-2-carboxamide], greater than 10 µM.
The result for `CCOC(=O)N1CCN(c2ccc(Nc3nc(N[C@@H]4C5C=CC(C5)[C@@H]4C(N)=O)c4sccc4n3)cc2F)CC1` (stereo partly drawn) [Compound 208, ethyl 4-(4-(4-((2R,35)-3-carbamoylbicyclo[2.2. 1]hept-5-en-2-ylamino)thieno[3,2-d]pyrimidin-2-ylamino)-2-fluorophenyl)piperazine-1-carboxylate] reads greater than 10 µM; that for `CC1CCN(C2CCN(c3ccc(Nc4nc(N[C@@H]5C6C=CC(C6)[C@@H]5C(N)=O)c5sc(C(F)(F)F)cc5n4)cc3F)CC2)CC1` (stereo partly drawn) [Compound 209, (2S,3R)-3-(2-(3-fluoro-4-(4-methyl-1,4′-bipiperidin-1′-yl)phenylamino)-6-(trifluoromethyl)thieno [3,2-d]pyrimidin-4 ylamino)bicyclo[2.2.1] hept-5-ene-2-carboxamide], less than 5 µM.
The result for `NC(=O)[C@H]1C2C=CC(C2)[C@H]1Nc1nc(Nc2ccc(OCCN3CCCC3)cc2)nc2cc(C(F)(F)F)sc12` (stereo partly drawn) [Compound 210, (2S,3R)-3-(2-(4-(2-(pyrrolidin-1-yl)ethoxy)phenylamino)-6-(trifluoromethyl)thieno [3,2-d]pyrimidin-4-ylamino)bicyclo[2.2.1] hept-5-ene-2-carboxamide] reads greater than 10 µM.
`NC(=O)[C@H]1C2C=CC(C2)[C@H]1Nc1nc(Nc2ccc(C(=O)N3CCN(C4CCCCC4)CC3)cc2)nc2cc(C(F)(F)F)sc12` (stereo partly drawn) [Compound 211, (2S,3R)-3-(2-(4-(4-cyclohexylpiperazine-1-carbonyl)phenylamino)-6-(trifluoromethyl)thieno [3,2-d]pyrimidin-4 ylamino)bicyclo[2.2.1] hept-5-ene-2-carboxamide]: the half-maximal inhibitory concentration (IC50) is less than 10 µM.
